Assay results published in article PMC8016166, “Identification of a Potent and Selective 5-HT1A Receptor Agonist with In Vitro and In Vivo Antinociceptive Activity” (ACS Chemical Neuroscience, 2020).

Experiments:
5-HT2CR = target: T1, 5-HT2CR (Rattus norvegicus, UniProt P08909); experiment: Radioligand binding at 5-HT2C on rat frontal cortex membranes; details: for selectivity 5-HT2/5-HT1A: Antilog [pKi (5-HT1AR) – pKi (5-HT2CR)]; for Ki: rat frontal cortex membranes, [3H]mesulergine, read-out: 5-HT2C pKi ± SEM (converted)
T1 construct: from tissue; host or cells: frontal cortex of male Sprague-Dawley rats
T1 sequence (P08909 33-460): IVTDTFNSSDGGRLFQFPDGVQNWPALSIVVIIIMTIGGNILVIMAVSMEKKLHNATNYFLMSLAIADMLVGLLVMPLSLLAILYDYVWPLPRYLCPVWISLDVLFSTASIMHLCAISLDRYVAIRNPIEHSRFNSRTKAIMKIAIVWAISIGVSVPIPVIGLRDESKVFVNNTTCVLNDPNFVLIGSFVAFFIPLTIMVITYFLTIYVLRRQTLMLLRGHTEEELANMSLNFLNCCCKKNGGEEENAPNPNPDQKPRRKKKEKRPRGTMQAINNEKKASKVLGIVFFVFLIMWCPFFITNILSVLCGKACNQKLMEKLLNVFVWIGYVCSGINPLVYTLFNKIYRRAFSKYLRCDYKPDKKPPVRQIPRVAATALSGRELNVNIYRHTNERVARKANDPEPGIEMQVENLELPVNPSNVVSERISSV
Description: Male Sprague–Dawley rats were decapitated and their brains removed and placed on ice. The hippocampi (for the functional 5-HT1A receptor assay) or frontal cortexes (for the competitive 5-HT2A and 5-HT2C receptor assays) were dissected and homogenized with a glass homogenizer in 30 vol. ice-cold TED buffer (50 mMTris-HCl, 1 mM EDTA, 1 mM dithiotheritol, pH 7.4). Next, the homogenate was centrifuged at 21 000g for 30 min at 4 °C. The pellet was suspended in 30 vol TED buffer (pH 7.4) and incubated in a water bath for 10 min at 37 °C to remove endogenous ligands. The suspension was centrifuged again at 21 000g for 30 min at 4 °C. The pellet was resuspended in 30 vol TED buffer (pH 7.4) and the centrifugation step was repeated. The final pellet was suspended in 10 vol 50 mM Tris-HCl (pH 7.4) and stored at −80 °C until use.[47]
The 5-HT2A assay was performed according to a previously described protocol with some modifications.[48] […] Nonspecific binding was determined in the presence of 10 μM mianserin. For the 5-HT2C assay, the frontal cortex homogenates (250 μg protein/mL) were incubated in triplicate with 1 nM [^3H]mesulergine for 60 min at 36 °C in a 50 mM Tris-HCl (pH 7.4) buffer containing 0.1% ascorbate, 10 mM MgCl2, 10 μM pargyline, 100 nM spiperone, and increasing concentrations (10^–10–10^–5 M) of the compound tested. After incubation, the reaction mixture was deposited onto UniFilter-96 GF/B plates, with the aid of a FilterMate-96 Harvester. The filter plates were presoaked with 0.4% PEI for 1 h. Next, each filter well was washed with 1.75 mL of 50 mM Tris-HCl (pH 7.4) and left to dry on a heating block set to 50 °C for 2 h. Then, 45 μL of Microscint-20 scintillation fluid was added to each filter well and left to equilibrate overnight. The filter-bound radioactivity was counted in a MicroBeta^2 Microplate Counter. Curves were fitted with a one-site sigmoidal dose–response equation and pKi for each compound was calculated with the Cheng-Pursoff equation. Results were analyzed with one-way ANOVA followed by the Bonferroni’s posthoc test. The results are expressed as means ± SEM of three independent experiments.

Hep-G2 cells = experiment: Hep-G2 cell viability (MTT assay); format: cell-based; details: 72 h; for hepatic cell viability vs untreated control cells: 50 μM; for hepatic cell viability (toxicity): concentrations ≤10 μM
Description: HEK293 cells with stable expression of human 5-HT1A, 5-HT6, and 5-HT7b (prepared with the use of Lipofectamine 2000) were grown in Dulbecco’s Modified Eagle Medium (DMEM) containing 10% dialyzed fetal bovine serum (FBS) and 500 μg/mL G418 sulfate. Liver hepatocellular carcinoma Hep-G2 cells were cultured in DMEM enriched by 10% FBS, 2 mM L-glutamine, 100 IU/mL penicillin, and 50 μg/mL streptomycin (all from Sigma-Aldrich Corporation, a division of Merck KGaA, Darmstadt, Germany). Cell lines were maintained at 37 °C in a humidified atmosphere with 5% CO2. For membrane preparation, the cells were subcultured in 150 cm^2 flasks, grown to 90% confluence, washed twice with prewarmed to 37 °C phosphate buffered saline (PBS), and pelleted by centrifugation (200g) in PBS containing 0.1 mM EDTA and 1 mM dithiothreitol. Prior to membrane preparation, pellets were stored at −80 °C.
Liver hepatocellular carcinoma Hep-G2 cells were seeded in 96-well plates (1 × 10^4 cells/well) and maintained under continuous stimulation with increasing concentrations (nM−μM range) of the tested compounds. 200 mM ethanol and 5% Triton X-100 (Sigma-Aldrich Corporation) served as controls. The viability of cells was assessed by MTT assay as previously described.[66],[67] The absorbance was detected by a Victor3 plate reader (PerkinElmer Inc., Waltham, MA, USA) and represented by box and whiskers plot, as a measure of cell viability. Differences between values from treated and untreated cells were evaluated by two-ANOVA followed by Dunnett’s multiple comparison test (p < 0.05).

Row | Structure (SMILES) | selectivity 5-HT2/5-HT1A (5-HT2CR) | Ki (5-HT2CR) | hepatic cell viability vs untreated control cells (Hep-G2 cells) | hepatic cell viability (toxicity) (Hep-G2 cells) | hepatic cell viability (Hep-G2 cells; 10 and 5 μM)
1 | c1ccc(C2(c3ccccc3)OCC(CNCCOc3ccccc3-c3ccncc3)O2)cc1 (racemic) [rac-1, N-[(2,2-diphenyl-1,3-dioxolan-4-yl)methyl]-2-[2-(pyridin-4-yl)phenoxy]ethan-1-ammonium hydrogenoxalate] | 40 | 363 nM | – | – | –
2 | Cn1cncc1-c1ccccc1OCCNCC1COC(c2ccccc2)(c2ccccc2)O1 (racemic) [rac-2, N-((2,2-diphenyl-1,3-dioxolan-4-yl)methyl)-2-(2-(1-methyl-1H-imidazol-5-yl)phenoxy)ethan-1-ammonium hydrogenoxalate] | 45 | 331 nM | – | – | –
3 | c1ccc(C2(c3ccccc3)OC[C@@H](CNCCOc3ccccc3-c3ccncc3)O2)cc1 [(R)-1, N-[(2,2-Diphenyl-1,3-dioxolan-4-yl)methyl]-2-[2-(pyridin-4-yl)phenoxy]ethan-1-ammonium hydrogenoxalate] | 204 | 912 nM | negatively impacted cell viability | very low toxicity | –
4 | Cn1cncc1-c1ccccc1OCCNC[C@@H]1COC(c2ccccc2)(c2ccccc2)O1 [(R)-2, N-((2,2-Diphenyl-1,3-dioxolan-4-yl)methyl)-2-(2-(1-methyl-1H-imidazol-5-yl)phenoxy)ethan-1-ammonium hydrogenoxalate] | 105 | 1260 nM | negatively impacted cell viability | very low toxicity | –
5 | c1ccc(C2(c3ccccc3)OC[C@H](CNCCOc3ccccc3-c3ccncc3)O2)cc1 [(S)-1, N-[(2,2-Diphenyl-1,3-dioxolan-4-yl)methyl]-2-[2-(pyridin-4-yl)phenoxy]ethan-1-ammonium hydrogenoxalate] | 102 | 955 nM | no effect | very low toxicity | –
6 | Cn1cncc1-c1ccccc1OCCNC[C@H]1COC(c2ccccc2)(c2ccccc2)O1 [(S)-2, N-((2,2-Diphenyl-1,3-dioxolan-4-yl)methyl)-2-(2-(1-methyl-1H-imidazol-5-yl)phenoxy)ethan-1-ammonium hydrogenoxalate] | 78 | 316 nM | negatively impacted cell viability | – | decreased cell viability
